Experimental data as given in patent US8518997B2, “4-(phenoxyalkyl)thio)-phenoxyacetic acids and analogs” (Janssen Pharmaceutica N.V., priority 2003, dated 2013).
Several values for one entry are separate records, joined by “and”; a condition that tells them apart may be missing. Equal values may be shown once.

Molecular target: T1, PPAR delta (Homo sapiens, UniProt Q03181)
T1 sequence (Q03181 171-441 limits assumed): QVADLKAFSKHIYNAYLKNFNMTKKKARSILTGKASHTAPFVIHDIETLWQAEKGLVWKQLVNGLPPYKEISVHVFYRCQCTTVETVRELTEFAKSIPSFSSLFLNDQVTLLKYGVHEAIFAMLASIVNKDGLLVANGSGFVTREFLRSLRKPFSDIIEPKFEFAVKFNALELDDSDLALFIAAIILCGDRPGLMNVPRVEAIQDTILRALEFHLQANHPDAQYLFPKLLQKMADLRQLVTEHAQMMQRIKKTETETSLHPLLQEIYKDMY
Test: Transfection assay for PPAR receptors (PPAR-Gal4 / Gal4-Luciferase reporter in HEK293 cells)
Assay type: cell-based
Settings: HEK293 cells co-transfected with PPAR-Gal4 (δ) receptor and Gal4-Luciferase reporter, 24 hours; multiple EC50's = multiple measurements; Table 2
Experimental: Transfection Assay Method for PPAR Receptors
HEK293 cells were grown in DMEM/F-12 Media supplemented with 10% FBS and glutamine (GIBCOBRL). The cells were co-transfected with DNA for PPAR-Gal4 (PPARα, γ or δ) receptor and Gal4-Luciferase Reporter using the DMRIE-C Reagent. On the following day, the medium was replaced with 5% Charcoal treated FBS growth medium. After six hours, cells were trypsinized and seeded at a density of 50,000 cell/well into 96 well plates and incubated overnight at 37° C. in a 5% CO2 incubator. Cells were then treated with test compounds or vehicle and incubated for 24 hours at 37° C. in a 5% CO2 incubator. Luciferase activity was assayed using the Steady-Glo Luciferase Assay Kit from Promega. […] Steady-Glo Luciferase Assay Kit was purchased from Promega Part# E254B.

Row | Structure (SMILES) | EC50
1 | Cc1cc(SCC(C)COc2ccc(C(F)(F)F)cc2)ccc1OCC(=O)O (stereo not shown) [Compound 1, {2-Methyl-4-[2-methyl-3-(4-trifluoromethyl-phenoxy)-propylsulfanyl]-phenoxy}-acetic acid] | 9.2 nM and 5.6 nM
2 | CCCCCC(COc1ccc(C(F)(F)F)cc1)CSc1ccc(OCC(=O)O)c(C)c1 (stereo not shown) [Compound 6, {2-Methyl-4-[2-(4-trifluoromethyl-phenoxymethyl)-heptylsulfanyl]-phenoxy}-acetic acid] | 3.3 nM (2×) and 3.7 nM
3 | Cc1ccc(OCCCSc2ccc(OCC(=O)O)c(C)c2)cc1 [Compound 8] | 215 nM
4 | Cc1cc(SCC(CCC#N)COc2ccc(C(F)(F)F)cc2)ccc1OCC(=O)O (stereo not shown) [Compound 11, {4-[4-Cyano-2-(4-trifluoromethyl-phenoxymethyl)-butylsulfanyl]-2-methyl-phenoxy}-acetic acid] | 5.7 nM
5 | Cc1cc(SCC(O)COc2ccc(C(F)(F)F)cc2)ccc1OCC(=O)O (stereo not shown) [Compound 13] | 79 nM
6 | COC(COc1ccc(C(F)(F)F)cc1)CSc1ccc(OCC(=O)O)c(C)c1 (stereo not shown) [Compound 14, {4-[2-Methoxy-3-(4-trifluoromethyl-phenoxy)-propylsulfanyl]-2-methyl-phenoxy}-acetic acid] | 16.2 nM and 21.5 nM
7 | CCCOC(COc1ccc(C(F)(F)F)cc1)CSc1ccc(OCC(=O)O)c(C)c1 (stereo not shown) [Compound 18, {2-Methyl-4-[2-propoxy-3-(4-trifluoromethyl-phenoxy)-propylsulfanyl]-phenoxy}-acetic acid] | 4.3 nM
8 | CCCCOC(COc1ccc(C(F)(F)F)cc1)CSc1ccc(OCC(=O)O)c(C)c1 (stereo not shown) [Compound 19, {4-[2-Butoxy-3-(4-trifluoromethyl-phenoxy)-propylsulfanyl]-2-methyl-phenoxy}-acetic acid] | 7.5 nM and 6.5 nM
9 | C=CCOC(COc1ccc(C(F)(F)F)cc1)CSc1ccc(OCC(=O)O)c(C)c1 (stereo not shown) [Compound 21, {4-[2-Allyloxy-3-(4-trifluoromethyl-phenoxy)-propylsulfanyl]-2-methyl-phenoxy}-acetic acid] | 3.7 nM and 4.2 nM
10 | COCO[C@@H](COc1ccc(C(F)(F)F)cc1)CSc1ccc(OCC(=O)O)c(C)c1 [Compound 23, (S)-{4-[2-Methoxymethoxy-3-(4-trifluoromethyl-phenoxy)-propylsulfanyl]-2-methyl-phenoxy}-acetic acid] | 70 nM
11 | COCOC(COc1ccc(C(F)(F)F)cc1)CSc1ccc(OCC(=O)O)c(C)c1 (stereo not shown) [Compound 24, {4-[2-Methoxymethoxy-3-(4-trifluoromethyl-phenoxy)-propylsulfanyl]-2-methyl-phenoxy}-acetic acid] | 6.3 nM and 6.6 nM (2×) and 5.1 nM and 6.4 nM and 3.7 nM
12 | CSCOC(COc1ccc(C(F)(F)F)cc1)CSc1ccc(OCC(=O)O)c(C)c1 (stereo not shown) [Compound 25, {2-Methyl-4-[2-methylsulfanylmethoxy-3-(4-trifluoromethyl-phenoxy)-propylsulfanyl]-phenoxy}-acetic acid] | 25.2 nM and 8.9 nM and 8.8 nM
13 | Cc1cc(SC[C@@H](COc2ccc(C(F)(F)F)cc2)OCc2ccc(Cl)s2)ccc1OCC(=O)O [Compound 27, {4-[2-(5-Chloro-thiophen-2-ylmethoxy)-3-(4-trifluoromethyl-phenoxy)-propylsulfanyl]-2-methyl-phenoxy}-acetic acid] | 11.9 nM and 18.5 nM
14 | COc1ccc(OC(COc2ccc(C(F)(F)F)cc2)CSc2ccc(OCC(=O)O)c(C)c2)cc1 (stereo not shown) [Compound 29, {4-[2-(4-Methoxy-phenoxy)-3-(4-trifluoromethyl-phenoxy)-propylsulfanyl]-2-methyl-phenoxy}-acetic acid] | 62.1 nM
15 | Cc1ccc(OCC(O)CSc2ccc(OCC(=O)O)c(C)c2)cc1 (stereo not shown) [Compound 31] | > 1000 nM
16 | CCOC(COc1ccc(C(F)(F)F)cc1)CSc1ccc(CC(=O)O)cc1Cl (stereo not shown) [Compound 32, {3-Chloro-4-[2-ethoxy-3-(4-trifluoromethyl-phenoxy)-propylsulfanyl]-phenyl}-acetic acid] | 11.2 nM
17 | COCCC(COc1ccc(C(F)(F)F)cc1)CSc1ccc(OCC(=O)O)c(C)c1 (stereo not shown) [Compound 35, {4-[4-Methoxy-2-(4-trifluoromethyl-phenoxymethyl)-butylsulfanyl]-2-methyl-phenoxy}-acetic acid] | 2.3 nM and 4.1 nM
18 | CCOC(CC(COc1ccc(C(F)(F)F)cc1)CSc1ccc(OCC(=O)O)c(C)c1)OCC (stereo not shown) [Compound 36, {4-[4,4-Diethoxy-2-(4-trifluoromethyl-phenoxymethyl)-butylsulfanyl]-2-methyl-phenoxy}-acetic acid] | 52.9 nM
19 | CCOCCC(COc1ccc(C(F)(F)F)cc1)CSc1ccc(OCC(=O)O)c(C)c1 (stereo not shown) [Compound 37, {4-[4-Ethoxy-2-(4-trifluoromethyl-phenoxymethyl)-butylsulfanyl]-2-methyl-phenoxy}-acetic acid] | 1.9 nM and 2.9 nM
20 | CSCOC(CCc1ccc(C(F)(F)F)cc1)CSc1ccc(OCC(=O)O)c(C)c1 (stereo not shown) [Compound 39, {2-Methyl-4-[2-methylsulfanylmethoxy-4-(4-trifluoromethyl-phenyl)-butylsulfanyl]-phenoxy}-acetic Acid] | 12.5 nM and 17.9 nM
21 | Cc1cc(SCC/C=C/c2ccc(C(F)(F)F)cc2)ccc1OCC(=O)O [Compound 40, {2-Methyl-4-[4-(4-trifluoromethyl-phenyl)-but-3-enylsulfanyl]-phenoxy}-acetic acid] | 39.3 nM and 43.7 nM
22 | Cc1cc(SCC(O)/C=C/c2ccc(C(F)(F)F)cc2)ccc1OCC(=O)O (stereo not shown) [Compound 41] | 144 nM
23 | CCOC(/C=C/c1ccc(C(F)(F)F)cc1)CSc1ccc(OCC(=O)O)c(C)c1 (stereo not shown) [Compound 42, {4-[2-Ethoxy-4-(4-trifluoromethyl-phenyl)-but-3-enylsulfanyl]-2-methyl-phenoxy}-acetic Acid] | 8 nM and 7.9 nM
24 | CCOC(COc1ccc(C(F)(F)F)cc1)COc1ccc(OCC(=O)O)c(C)c1 (stereo not shown) [Compound 44, {-4-[2-Ethoxy-3-(4-trifluoromethyl-phenoxy)-propoxy]-2-methyl-phenoxy}-acetic acid] | 24.3 nM

The remaining lines, values ahead:

Row | EC50 | Structure (SMILES)
25 | 0.08 nM and 0.04 nM | CCC(COc1ccc(C(F)(F)F)cc1)CSc1ccc(OCC(=O)O)c(C)c1 (stereo not shown) [Compound 3, {2-Methyl-4-[2-(4-trifluoromethyl-phenoxymethyl)-butylsulfanyl]-phenoxy}-acetic acid]
26 | 29.6 nM | CCC(COc1ccc(C(F)(F)F)cc1)CSc1ccc(OCC(=O)O)cc1 (stereo not shown) [Compound 4, {4-[2-(4-Trifluoromethyl-phenoxymethyl)-butylsulfanyl]-phenoxy}-acetic acid]
27 | 211 nM | Cc1cc(SCC(C)Oc2ccc(C(F)(F)F)cc2)ccc1OCC(=O)O (stereo not shown) [Compound 7, {2-Methyl-4-[2-(4-trifluoromethyl-phenoxy)-propylsulfanyl]-phenoxy}-acetic acid]
28 | 16.6 nM and 18.5 nM | CCC(COc1ccc(C(F)(F)F)cc1)CSc1ccc(CC(=O)O)cc1Cl (stereo not shown) [Compound 9, {3-Chloro-4-[2-(4-trifluoromethyl-phenoxymethyl)-butylsulfanyl]-phenyl}-acetic acid]
29 | 29 nM and 56 nM | Cc1cc(SCC(CC#N)COc2ccc(C(F)(F)F)cc2)ccc1OCC(=O)O (stereo not shown) [Compound 10, {4-[3-Cyano-2-(4-trifluoromethyl-phenoxymethyl)-propylsulfanyl]-2-methyl-phenoxy}-acetic acid]
30 | 19.9 nM | Cc1cc(SCC(C/C=C/C#N)COc2ccc(C(F)(F)F)cc2)ccc1OCC(=O)O (stereo not shown) [Compound 12, {4-[5-Cyano-2-(4-trifluoromethyl-phenoxymethyl)-pent-4-enylsulfanyl]-2-methyl-phenoxy}-acetic acid]
31 | 0.76 nM and 0.56 nM and 0.88 nM and 3.4 nM and 5 nM and 1.1 nM | CCO[C@H](COc1ccc(C(F)(F)F)cc1)CSc1ccc(OCC(=O)O)c(C)c1 [Compound 15, (R)-{4-[2-Ethoxy-3-(4-trifluoromethyl-phenoxy)-propylsulfanyl]-2-methyl-phenoxy}-acetic acid]
32 | 22.4 nM and 27.5 nM | CCO[C@@H](COc1ccc(C(F)(F)F)cc1)CSc1ccc(OCC(=O)O)c(C)c1 [Compound 16, (S)-{4-[2-Ethoxy-3-(4-trifluoromethyl-phenoxy)-propylsulfanyl]-2-methyl-phenoxy}-acetic acid]
33 | 4.2 nM and 3.2 nM and 1.5 nM and 4.5 nM and 0.69 nM and 2.7 nM | CCOC(COc1ccc(C(F)(F)F)cc1)CSc1ccc(OCC(=O)O)c(C)c1 (stereo not shown) [Compound 17, {4-[2-Ethoxy-3-(4-trifluoromethyl-phenoxy)-propylsulfanyl]-2-methyl-phenoxy}-acetic acid]
34 | 126 nM | Cc1cc(SCC(COc2ccc(C(F)(F)F)cc2)OCC(=O)O)ccc1OCC(=O)O (stereo not shown) [Compound 26, {4-[2-Carboxymethoxy-3-(4-trifluoromethyl-phenoxy)-propylsulfanyl]-2-methyl-phenoxy}-acetic acid]
35 | 23.9 nM | CCCC(=O)c1ccc(OC(COc2ccc(C(F)(F)F)cc2)CSc2ccc(OCC(=O)O)c(C)c2)cc1 (stereo not shown) [Compound 30, {4-[2-(4-Butyryl-phenoxy)-3-(4-trifluoromethyl-phenoxy)-propylsulfanyl]-2-methyl-phenoxy}-acetic acid]
36 | 4.7 nM and 4.6 nM | CCOCC(COc1ccc(C(F)(F)F)cc1)CSc1ccc(OCC(=O)O)c(C)c1 (stereo not shown) [Compound 33, {4-[2-Ethoxymethyl-3-(4-trifluoromethyl-phenoxy)-propylsulfanyl]-2-methyl-phenoxy}-acetic acid]
37 | 43.2 nM | Cc1cc(SC[C@H](O)COc2ccc(C(F)(F)F)cc2)ccc1OCC(=O)O [Compound 43, Acetic acid, {4-(2R)-2-hydroxy-3-(4-trifluoromethyl-phenoxy)-propylsulfanyl}-2-methyl-phenoxyy]
